Assay results: patent publication EP0028305A1, “Diaryl compounds and pharmaceutical formulations containing them” (THE WELLCOME FOUNDATION LIMITED, priority 1979, dated 1981)
Where a name gives a salt, the structure may show the parent alone.

Tested on: virus
Assay: plaque reduction (PR) test
Assay type: cell-based
Settings: plaque reduction assay, compound incorporated in nutrient agarose overlay; read-out: PR(ED50/µM)
Experimental: (§1) Activity may be detected by the plaque inhibition (PI) test and measured by the plaque reduction (PR) test. Both assays involve the formation of a monolayer cell culture in a petri dish followed by infection with a virus suspension, and then overlaying the culture with nutrient agarose in the form of a gel. This gel ensures that there is no spread of virus throughout the culture and thus areas of localised cell destruction or plaques are formed.
Detectable activity is measured with the plaque reduction assay. A range of concentrations of compounds of known molarity are incorporated in the nutrient agarose overlay. Plaque suppression is proportional to compound concentration. Plaque numbers are expressed as percentages of a control, and a dose response curve may be drawn. From this curve 50% of the effective dose (ED50) may be estimated.

`Clc1ccc(CNc2ccccc2)cc1Cl` [Example 1, N-3,4-dichlorobenzylaniline hydrochloride] was tested. Which EC50 did it give?
The EC50 was 0.17 µM.

How did the EC50 turn out when `O=[N+]([O-])c1ccccc1OCc1ccc(Cl)cc1` [Example 2, 4-chlorobenzyl 2-nitrophenyl ether] was run?
Its EC50 is 1.2 µM.

How did the EC50 turn out when `CCc1ccc(OCc2ccc(Cl)cc2)cc1` [Example 3, 4-Chlorobenzyl 4-ethylphenyl ether] was run?
The EC50 was 0.72 µM.

Which EC50 does the source give for `CC(C)(C)c1cccc(OCc2ccc(Cl)cc2)c1` [Example 4, 4-Chlorobenzyl 3-t-butylphenyl ether] here?
Its EC50 is 1.9 µM.

For `Clc1ccc(COc2ccc(Cl)c(Cl)c2)cc1Cl` [Example 5, 3,4-Dichlorobenzyl 3,4-dichlorophenyl ether], which EC50 is on record?
The EC50 was 0.47 µM.

With `FC(F)(F)c1cccc(OCc2ccccc2)c1` [Example 6, Benzyl 3-trifluoromethylphenyl ether] as the compound, how does the EC50 read?
The EC50 was 0.66 µM.

Which EC50 does the source give for `N#Cc1ccc(OCc2ccc(Cl)cc2)cc1` [Example 7, 4-Chlorobenzyl 4-cyanophenyl ether] here?
The EC50 was 0.22 µM.

`Cc1ccc(COc2ccc(C)cc2)cc1` [Example 8, 4-Methylbenzyl 4-methylphenyl ether] was tested. Which EC50 did it give?
The EC50 was 0.56 µM.

How did the EC50 turn out when `O=C(O)c1ccc(OCc2ccc(Cl)cc2)cc1` [Example 9, 4-Chlorobenzyl 4-carboxyphenyl ether] was run?
The EC50 was 1.6 µM.

With `Clc1cc(COc2ccccc2)cc(Cl)c1Cl` [Example 10, 3,4,5-Trichlorobenzyl phenyl ether] as the compound, how does the EC50 read?
The EC50 was 1.6 µM.

With `Clc1ccc(COc2ccc(Cl)c(Cl)c2)cc1` [Example 11, 4-Chlorobenzyl 3,4-dichlorophenyl ether] as the compound, how does the EC50 read?
The EC50 was 0.33 µM.

With `Clc1ccc(CCCc2ccccc2)cc1Cl` [Example 12, 1-(3,4-dichlorophenyl)-3-phenylpropane] as the compound, how does the EC50 read?
The EC50 was 0.068 µM.

Which EC50 does the source give for `OC(CCc1ccc(Cl)cc1)c1ccc(Cl)cc1` (stereo not drawn) [Example 13, 1,3-bis-(4-chlorophenyl)propan-1-ol] here?
The EC50 was 1.3 µM.

With `OC(CCc1ccc(Cl)c(Cl)c1)c1ccccc1` (stereo not drawn) [Example 14, 3-(3,4-dichlorophenyl)-1-phenylpropan-1-ol] as the compound, how does the EC50 read?
The EC50 was 0.66 µM.

For `O=C(CCc1ccc(Cl)c(Cl)c1)c1ccccc1` [Example 15, 3-(3,4-dichlorophenyl)-1-phenylpropan-1-one], which EC50 is on record?
The EC50 was 0.235 µM.

`Clc1ccc(CC=Cc2ccccc2)cc1Cl` [Example 16, 3-(3,4-dichlorophenyl)-1-phenylpropene] was tested. Which EC50 did it give?
The EC50 was 0.19 µM.

How did the EC50 turn out when `OC(C=Cc1ccc(Cl)c(Cl)c1)c1ccccc1` (stereo not drawn) [Example 17, 3-(3,4-dichlorophenyl)-l-phenylprop-2-en-l-ol] was run?
Its EC50 is 1.2 µM.

With `OC(C=Cc1ccc(Cl)cc1)c1ccc(Cl)cc1` (stereo not drawn) [Example 18, 1,3-bis-(4-chlorophenyl)prop-2-en-1-ol] as the compound, how does the EC50 read?
Its EC50 is 1.35 µM.

With `OC(COc1ccc(Cl)cc1)c1ccc(Cl)cc1` (stereo not drawn) [Example 19, 2-(4-chlorophenoxy)-1-(4-chlorophenyl)ethanol] as the compound, how does the EC50 read?
Its EC50 is 1.5 µM.

How did the EC50 turn out when `OC(COc1ccc(Cl)c(Cl)c1)c1ccccc1` (stereo not drawn) [Example 20, 2-(3,4-dichloro^phenoxy)-l-phenylethanol] was run?
Its EC50 is 2.5 µM.

`NC(=S)c1ccc(OCc2ccc(Cl)cc2)cc1` [Example 21, 4-(4-chlorobenzyloxy)benzenecarbothioamide] was tested. Which EC50 did it give?
Its EC50 is 0.6 µM.

For `NC(=O)c1ccc(OCc2ccc(Cl)cc2)cc1` [Example 22, 4-(4-chlorobenzyloxy)benzamide], which EC50 is on record?
Its EC50 is 0.43 µM.

`OCc1cccc(OCc2ccc(Cl)cc2)c1` [Example 23, 4-chlorobenzyl 3-hydroxymethylphenyl ether] was tested. Which EC50 did it give?
The EC50 was 0.53 µM.

`OC(CNc1ccc(Cl)cc1)c1ccc(Cl)cc1` (stereo not drawn) [Example 24, 2-(4-chloroanilino)-1-(4-chlorophenyl)ethanol] was tested. Which EC50 did it give?
The EC50 was 3 µM.

Same assay, conditions: second value printed in parentheses in the same cell, meaning not explained; read-out: PR(ED50/µM)

For `CC(C)(C)c1cccc(OCc2ccc(Cl)cc2)c1` [Example 4, 4-Chlorobenzyl 3-t-butylphenyl ether], which EC50 is on record?
Its EC50 is 5 µM.

`FC(F)(F)c1cccc(OCc2ccccc2)c1` [Example 6, Benzyl 3-trifluoromethylphenyl ether] was tested. Which EC50 did it give?
Its EC50 is 1.7 µM.

Tested on: virus
Assay: intranasal administration, simulation in vitro (plaque formation, compound applied to petri dish lid)
Assay type: cell-based
Settings: lug dissolved in ethanol, applied to lids of petri dishes, ethanol evaporated; compound penetrated the agarose layer
From the text: as §1
In the plaque inhibition test a filter paper disc which holds 0.01 ml when impregnated with a solution of a compound is placed on top of the agarose gel. The compound may then diffuse throughout the gel so that its greatest concentration will be around the disc and its lowest concentration towards the periphery of the petri dish. The efficacy of the compound may be detected by observing the zone of inhibition of plaque formation.
Petri dishes were prepared, as for the plaque inhibition test and the confluer sheet of cells was covered with a layer of agarose gel. The compound, of Example 12 (lug) was dissolved in ethanol, and applied to the lids of the petri dishes. When the ethanol had evaporated, leaving the compound spread over the inside of the lids, these were replaced on the petri dishes.

For `Clc1ccc(CCCc2ccccc2)cc1Cl` [Example 12, 1-(3,4-dichlorophenyl)-3-phenylpropane], which “inhibition of plaque formation” value is on record?
Its value is “total inhibition”.
